Test results taken from patent US20050042747A1, “Hivgp120-induced bob/gpr15 activation” (priority 2001, published 2005).
Entries after “also recorded” stand apart in the source; their conditions may differ.

Key:
[1] = system: gp120-induced calcium signaling in HT-29 cells; test: Inhibition of gp120-induced calcium signaling in HT-29 cells; format: cell-based, human; settings: pretreatment
Method: (§1) Calcium studies were done on HT-29 cells and Ghost (3) cells loaded with Fluo 4. The cells were placed in Locke's buffer containing 5 μg/ml Fluo 4 AM ester (Molecular Probes) for 20 to 30 minutes, then in Locke's buffer for an additional 30 minutes before testing. Various concentrations of gp120IIIB (X4 trophic), gp120CM235 (R5 trophic), gp120mN (X4 trophic), gp12093TH975 (nonsyncytium-inducing primary isolate from an asymptomatic subject, trophism undetermined but likely R5), and gp120SF2 (X4R5 trophic), ranging from 10 nM to less than 1 pM, were added in Locke's buffer.^6 The gp120 proteins were obtained from the AIDS Research Reagent Referral Program. Some HT-29 cells were given one of the following pretreatments: 50 μg/ml anti-Bob37 overnight, 1 μg/ml pertussis toxin overnight, or 4.6 μg/ml U73122 for one hour. With the HT-29 cells only, similar tests were also performed with SDF-1, MIP-1α, MIP-1β, and RANTES rather than gp120. The cells were visualized every 4 seconds in a confocal microscope, using 488 nm argon laser excitation and detection filters appropriate for fluorescein-like dyes.
Blocking antibody experiments were done with HT-29 cells (monitoring calcium flux, microtubule loss, or transepithelial resistance), with Ghost (3) Bob cells (monitoring calcium flux) and peripheral blood mononuclear cells (monitoring calcium flux and HIV infection). Specifics of these protocols and the specific results are given herein. […] Antibody concentrations of 40 to 50 micrograms/ml overnight were needed for maximal effect.
(§2) For the first two or three days after plating, gp120 induces an immediate (within 4 seconds) calcium flux in undifferentiated HT-29 cells. The cells had previously been loaded with Fluo-4 AM ester (Molecular Probes, Eugene Oreg.) 5 micrograms/ml in the presence of Pleuronic F-127 0.02% in Locke's buffer for 30 minutes, then incubated at room temperature for an additional 30 minutes. Gp120IIIB was added while the cells were on an inverted confocal microscope using a 488 nm argon laser, with detection filters suitable for fluorescein-like dyes. […]

[2] = Interaction of synthetic Bob peptides with GalCer monolayer (surface pressure); format: binding, human; settings: initial surface pressure 10 mN/m; at equilibrium; mean of three experiments ±SD
Method: Artificial membranes composed entirely of galactosyl ceramide with an alpha hydroxylated fatty acid were made. The surface pressure was measured with a microtensimeter (Kibron Inc., Finland) designed for the study of protein-lipid interactions. The peptides used for immunization were added to the subphase, and the surface pressure was continuously measured until equilibrium was reached. The increase in pressure was expressed in mN/m.
A monolayer of GalCer was prepared at the air-water interface at an initial surface pressure of 10 mN/m. The maximal surface surface pressure increase (Δπmax) reached at the equilibrium is indicated. The values are the mean of three separate experiments (±SD).
(§3) Galactosylceramide with an α-hydroxylated fatty acid (referred to as GalCer throughout this study) was either prepared from bovine brain (Sigma) or purified from HT-29-D4 membrane rafts (Fantini et al., 2000a). The surface pressure was measured with a microtensiometer (Kibron Inc., Finland) specially designed for studying protein-lipid interactions (Fantini et al., 2000a). The experiments were carried at 25° C. out in a laboratory equipped with a filtered air supply. A solution of GalCer was prepared extemporaneously in hexane:chloroform:methanol, 11:5:4 (v:v:v) at a concentration of 1 mg/ml. The lipid was carefully spread onto the meniscus of a pure water subphase (800 μl). The proteic ligand (GPR15/Bob peptides or HIV-1 gp120) was injected into the subphase with a 10 μl Hamilton syringe. The surface pressure was continuously measured as a function of time until reaching equilibrium corresponding to the maximal surface presure increase (Δπmax) expressed in mN/m.

HT-29 cells = test: Calcium signaling in HT-29 cells (Fluo 4, confocal microscope); format: cell-based, human
Method: HT-29 cells (from ATCC) were grown in DMEM-F12 with 10% bovine calf serum, and were used 24-48 hours after plating. The Ghost (3) cells were obtained from the AIDS Research and Reference Reagent Program, and were grown DMEM with 10% bovine calf serum supplemented with 500 μg/ml G418, 100 μg/ml hygromycin, and 1 μg/ml puromycin.^27 These cells were used 24 to 96 hours after plating.
as §1, §2

HT-29-D4 cells = test: Transepithelial resistance (TEER) of differentiated HT-29-D4 cells; format: cell-based, human; settings: electrophysiological medium
[3] = GalCer-gp120 interactions at the air-water interface (surface pressure); format: binding; settings: gp120 5 nM in aqueous subphase
Method: A monomolecular film of GalCer was prepared at the air-water interface and gp120 purified from either IIIB (full squares), SEN (open circles) or 89.6 (full circles) isolates was added in the aqueous subphase at a concentration of 5 nM. The kinetics of the surface pressure increase induced by the viral glycoproteins are shown.
as §3
In a recent study, it was shown that the interaction between GalCer and gp120 purified from HIV-1(IIIB) was very efficient, whereas gp120s from 89.6 and SEN isolates interacted very weakly (Hammache et al., 1998). The kinetics of this interaction are an important physicochemical parameter allowing the direct comparison of GalCer recognition by various gp120s. In the experiment shown in FIG. 11, gp120 purified from IIIB, SEN, or 89.6 was injected underneath a monomolecular film of GalCer at the air-water interface. The GalCer film mimics the topology of a GalCer raft as it is organized in the external leaflet of the plasma membrane. For this reason, the Langmuir film balance technique is one of the most sensitive and reliable for studying protein-glycolipid interactions (Maggio et al., 1994). […] The surface increase indicates a condensing effect of the gp120 on the lipidic film due to its interaction with GalCer molecules (Hammache et al., 1998). […] At this time however, the level of interaction indicated by the absolute increase of the surface pressure was identical to the one of gp120(IIIB). […] The GalCer-binding capacity of gp120(SEN) was reevaluated and shown to occur much more slowly, but not less efficiently, than of gp120(IIIB).

CCR5 = target: T1, CCR5 (Homo sapiens, UniProt P51681); test: gp120-induced calcium flux, Ghost (3) cells transfected with CCR5; format: cell-based; design: key: — = no calcium flux seen at any dilution tested; settings: Ghost (3) CCR5 cells
T1 construct: host or cells: Ghost (3) cells (human osteosarcoma, CD4+)
T1 sequence (P51681 whole entry): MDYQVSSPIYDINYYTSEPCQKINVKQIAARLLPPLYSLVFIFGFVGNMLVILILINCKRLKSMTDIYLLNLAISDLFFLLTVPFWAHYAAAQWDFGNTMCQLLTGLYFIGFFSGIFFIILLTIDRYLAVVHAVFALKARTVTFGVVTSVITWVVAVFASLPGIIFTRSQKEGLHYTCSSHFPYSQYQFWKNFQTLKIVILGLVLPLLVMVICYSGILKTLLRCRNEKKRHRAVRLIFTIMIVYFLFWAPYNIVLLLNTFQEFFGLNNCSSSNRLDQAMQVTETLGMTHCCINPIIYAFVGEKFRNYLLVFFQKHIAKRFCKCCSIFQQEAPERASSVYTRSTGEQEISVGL
Method: as §1
(§4) Human osteosarcoma cell lines were transfected to express CD4, one or another of the HIV coreceptors, and a Green Fluorescent Protein reporter for active HIV infection, for the purpose of testing which of the known coreceptors was used to induce HIV infection by a given HIV strain (Morner A. J Virol 73:2343-9, 1999 and Deng K Nature 388:296-300, 1997). These cells were obtained from the AIDS Research and Reference Reagent Program, courtesy of Dr. Vineet KewalRamani and Dr. Dan Littman. These cells were grown in DMEM with 10% bovine calf serum supplemented with 0.5 mg/ml G418, 0.1 mg/ml hygromycin, and 1 microgram/ml puromycin, and were used at low passage number (less than 10). We have discovered that these cell lines are also activated by gp120 of certain viral strains, inducing a calcium flux in these cells.
(§5) Within 4 days of plating, coreceptor-transfected Ghost (3) cells (as well as the parent cell line not transfected to express any HIV coreceptors as a control) were put in Locke's medium, then treated with Fluo-4 (5 micrograms/ml for 30 minutes at 37° C.). After an additional 30 minute incubation in Locke's buffer at room temperature, the cells were examined in a confocal microscope while gp120 of various viral strains was added, and the cells were examined at 4 second intervals to look for a gp120-induced calcium flux. The results are given in the following table, expressed as the minimal concentration of gp120 resulting in a significant calcium flux. “−” means that no reproducible calcium flux was observed. “ND” means that the gp120 of that viral strain was not tested with the stated coreceptor. […]

CXCR4 = target: T2, CXCR4 (Homo sapiens, UniProt P61073); test: gp120-induced calcium flux, Ghost (3) cells transfected with CXCR4; format: cell-based; design: key: — = no calcium flux seen at any dilution tested; settings: Ghost (3) CXCR4 cells
T2 construct: host or cells: Ghost (3) cells (human osteosarcoma, CD4+)
T2 sequence (P61073 whole entry): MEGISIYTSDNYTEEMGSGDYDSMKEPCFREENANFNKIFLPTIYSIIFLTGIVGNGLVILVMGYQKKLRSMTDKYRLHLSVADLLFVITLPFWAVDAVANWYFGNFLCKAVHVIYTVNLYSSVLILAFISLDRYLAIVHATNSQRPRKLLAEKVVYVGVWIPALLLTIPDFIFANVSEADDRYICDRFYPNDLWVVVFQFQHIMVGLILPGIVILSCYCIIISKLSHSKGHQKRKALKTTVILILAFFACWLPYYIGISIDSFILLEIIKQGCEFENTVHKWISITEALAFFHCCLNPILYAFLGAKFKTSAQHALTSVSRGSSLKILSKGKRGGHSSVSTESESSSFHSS
Method: as §1, §4, §5

Bob = target: T3, Bob (Homo sapiens, UniProt P49685); test: gp120-induced calcium flux, Ghost (3) cells transfected with Bob (Fluo-4); format: cell-based; design: key to minimal concentration of gp120 resulting in a significant calcium flux: — = no calcium flux seen at any dilution tested
T3 construct: host or cells: Ghost (3) cells (human osteosarcoma, also transfected with CD4 and a GFP reporter)
T3 sequence (P49685 1-360): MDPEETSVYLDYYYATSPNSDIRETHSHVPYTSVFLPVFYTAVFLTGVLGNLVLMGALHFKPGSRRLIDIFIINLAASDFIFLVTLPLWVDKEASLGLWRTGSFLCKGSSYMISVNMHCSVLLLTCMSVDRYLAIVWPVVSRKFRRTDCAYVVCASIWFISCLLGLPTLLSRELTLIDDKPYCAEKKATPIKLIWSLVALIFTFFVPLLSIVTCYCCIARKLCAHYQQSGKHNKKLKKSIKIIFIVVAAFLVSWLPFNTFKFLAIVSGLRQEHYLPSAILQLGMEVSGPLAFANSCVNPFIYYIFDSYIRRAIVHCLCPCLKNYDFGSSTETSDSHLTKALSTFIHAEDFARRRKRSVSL
Method: as §1, §4
Within 4 days of plating, coreceptor-transfected Ghost (3) cells (as well as the parent cell line not transfected to express any HIV coreceptors as a control) were put in Locke's medium, then treated with Fluo-4 (5 micrograms/ml for 30 minutes at 37° C.). After an additional 30 minute incubation in Locke's buffer at room temperature, the cells were examined in a confocal microscope while gp120 of various viral strains was added, and the cells were examined at 4 second intervals to look for a gp120-induced calcium flux. The results are given in the following table, expressed as the minimal concentration of gp120 resulting in a significant calcium flux. “−” means that no reproducible calcium flux was observed. “ND” means that the gp120 of that viral strain was not tested with the stated coreceptor.
These cells were treated with serial dilutions (100 or 250 nM to at least 1 pM, or even less if calcium fluxes were noted) of gp120. Gp120s from each of four HIV-1 strains: IIIB, CM235, SF2, and […] were used. Listed is the greatest dilution which induced a significant, reproducible calcium flux. The parental line is known to express CXCR4 at very low levels. Those results indicated by an asterisk are thought to represent this artifact.

[4] = system: Ghost (3) parental cell line; test: gp120-induced calcium flux, Ghost (3) parental cell line; format: cell-based, human; design: key: — = no calcium flux seen at any dilution tested; settings: Ghost (3) parental line
Method: as §1, §4, §5

[5] = system: peripheral blood mononuclear cells; test: gp120-induced calcium flux in peripheral blood mononuclear cells; format: cell-based, human; settings: for inhibition of gp120IIIB-induced calcium flux, in words: pretreatment
Method: Normal human peripheral blood mononuclear cells were isolated by Ficoll gradient centrifugation, and loaded with the calcium sensitive dye Fluo-4. HIV gp120IIIB induced strong calcium fluxes in the range of 7 nM to 50 pM, and there was a weaker signal at 5 pM.
Experiments corresponding to those with HT-29 cells were done with peripheral blood mononuclear cells. These were isolated from the blood of a healthy, HIV-uninfected person by a Ficoll-Hypaque techique (Histopaque, Sigma), then loaded with Fluo-4 by a technique nearly identical to that used for HT-29 cells, except that Hank's buffer was used rather than Locke's, and the cells were centrifuged (2,000 g for 10 minutes) just before calcium flux measurements to improve adherence. Gp120-induced calcium fluxes were documented with as little as 5 pM gp120IIIB.

For `COc1ccc2c(c1)CC[C@@H]1[C@@H]2CC[C@]2(C)[C@@H](NCCCCCCN3C(=O)CCC3=O)CC[C@@H]12` [U73343], the “inhibition of gp120-induced calcium signaling, in words” value [1] was “no inhibitory effect and not”.

In the case of “DKEASLGLWRTGSFLCK [P2, Bob peptide, first extracellular loop]”, the Δπ max [2] is reported as 5.40 ± 1.52 mN/m.

Molecule “HAEDFARRRKRSVSL [P1, Bob peptide, internal C-ter domain]” has a Δπ max [2] of 1.89 ± 0.85 mN/m.

With “KNYDFGSSTETSDSHLTK [P6, Bob peptide, internal C-ter domain]” the Δπ max [2] was 2.67 ± 0.40 mN/m.

For “MDPEETSVYLDYYYATS [P3, Bob peptide, extracellular N-ter end]”, the Δπ max [2] was 2.26 ± 0.12 mN/m.

With “RELTLIDDKPYCAEKKAT [P5, Bob peptide, second extracellular loop]” the Δπ max [2] was 6.86 ± 1.37 mN/m.

With “SDF-1: natural ligand of CXCR4 [reference compound]” the “calcium signaling in HT-29 cells, in words” value (HT-29 cells) was “substantial calcium signal; also recorded: induced similar calcium signaling”.

In the case of “SGLRQEHYLPSAILQ [P4, Bob peptide, third extracellular loop]”, the Δπ max [2] is reported as 5.21 ± 1.06 mN/m.

In the case of “gp120(89.6): gp120 purified from primary isolate HIV-1(89.6)”, the “TEER response, in words” value (HT-29-D4 cells) is reported as “not observed”, the “TEER response, in words” value (HT-29-D4 cells; listed as gp120 from 89.6) is reported as “totally inactive” and the “interaction with GalCer film, in words” value [3] is reported as “very little association with GalCer”. The “maximal surface pressure increase relative to IIIB and SEN” value [3] was “less than 50%”.

For “gp120MN: gp120 of HIV strain MN (X4 trophic)”, the “minimal concentration of gp120 resulting in a significant calcium flux” value (CCR5) was “—”, the “minimal concentration of gp120 resulting in a significant calcium flux” value (CXCR4) was “—” and the “minimal concentration of gp120 resulting in a significant calcium flux” value (Bob; Ghost (3) Bob cells, 100 or 250 nM to at least 1 pM) was “—”. The “Bob activation / calcium signals in Bob-transfected Ghost (3) cells, in words” value (Bob; listed as MN) was “do not activate Bob; also recorded: did not cause calcium signals” and the “minimal concentration of gp120 resulting in a significant calcium flux” value [4] was “—”.

In the case of heparin, the “inhibition of gp120IIIB-induced calcium flux” value ([5]; 15 minute preincubation of gp120IIIB with 40 micrograms/ml at 0-4° C., 200 nM gp120IIIB) is reported as 40 fold, the “inhibition of gp120IIIB-induced calcium flux, in words” value [5] is reported as “Inhibition” and the “inhibition of gp120IIIB-induced calcium flux, in words” value ([5]; listed as sodium heparin) is reported as “inhibited the calcium flux”.
